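Test compounds were applied to cells in 96-well plates for 48 hours at 5 doses. GI50: concentration for 50% inhibition of growth.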 The source made the active and inactive calls. Cut-off read from the data, not from the text of the source: active = GI50 up to about 1.1 µM and inactive = higher.
Legend:
Assay in all cases: growth of human tumour cells (NCI), 48 h
786-0 = system: 786-0
A498 = system: A498
A549 = system: A549
ACHN = system: ACHN
CAKI-1 = system: CAKI-1
CCRF-CEM = system: CCRF-CEM
COLO 205 = system: COLO 205
DLD-1 = system: DLD-1
DMS-114 = system: DMS-114
DMS-273 = system: DMS-273
EKVX = system: EKVX
HCC 2998 = system: HCC 2998
HCT-116 = system: HCT-116
HCT-15 = system: HCT-15
HL-60 = system: HL-60
HOP-62 = system: HOP-62
HOP-92 = system: HOP-92
HT-29 = system: HT-29
IGROV-1 = system: IGROV-1
K562 = system: K562
KM-20L2 = system: KM-20L2
LOX IMVI = system: LOX IMVI
LXFL 529 = system: LXFL 529
M14 = system: M14
M19-MEL = system: M19-MEL
MOLT-4 = system: MOLT-4
Malme-3M = system: Malme-3M
NCI-H226 = system: NCI-H226
NCI-H23 = system: NCI-H23
NCI-H460 = system: NCI-H460
NCI-H522 = system: NCI-H522
OVCAR-3 = system: OVCAR-3
OVCAR-4 = system: OVCAR-4
OVCAR-5 = system: OVCAR-5
OVCAR-8 = system: OVCAR-8
RPMI-8226 = system: RPMI-8226
RXF 393 = system: RXF 393
RXF 631 = system: RXF 631
SF-268 = system: SF-268
SF-295 = system: SF-295
SF-539 = system: SF-539
SK-MEL-28 = system: SK-MEL-28
SK-MEL-2 = system: SK-MEL-2
SK-MEL-5 = system: SK-MEL-5
SK-OV-3 = system: SK-OV-3
SN12C = system: SN12C
SNB-19 = system: SNB-19
SNB-75 = system: SNB-75
SNB-78 = system: SNB-78
SW-620 = system: SW-620
TK-10 = system: TK-10
UACC-257 = system: UACC-257
UACC-62 = system: UACC-62
UO-31 = system: UO-31
XF498 = system: XF498
HOP-18 = system: HOP-18
KM12 = system: KM12
SR = system: SR
U-251 = system: U-251

COC(=O)C(=O)C(C#N)c1nc2ccccc2s1 (stereo not drawn)
GI50 (786-0): > 100 µM (inactive) | GI50 (A498): > 100 µM (inactive) | GI50 (A549): > 100 µM (inactive) | GI50 (ACHN): > 100 µM (inactive) | GI50 (CAKI-1): > 100 µM (inactive) | GI50 (CCRF-CEM): 75.2 µM (inactive) | GI50 (COLO 205): > 100 µM (inactive) | GI50 (DLD-1): 56.4 µM (inactive) | GI50 (DMS-114): > 100 µM (inactive) | GI50 (DMS-273): > 100 µM (inactive) | GI50 (EKVX): > 100 µM (inactive) | GI50 (HCC 2998): > 100 µM (inactive) | GI50 (HCT-116): 97.1 µM (inactive) | GI50 (HCT-15): 57 µM | GI50 (HL-60): 92.9 µM (inactive) | GI50 (HOP-62): > 100 µM (inactive) | GI50 (HOP-92): > 100 µM (inactive) | GI50 (HT-29): 66.4 µM (inactive) | GI50 (IGROV-1): > 100 µM (inactive) | GI50 (K562): 57.4 µM (inactive) | GI50 (KM-20L2): > 100 µM (inactive) | GI50 (LOX IMVI): > 100 µM (inactive) | GI50 (LXFL 529): > 100 µM (inactive) | GI50 (M14): > 100 µM (inactive) | GI50 (M19-MEL): > 100 µM (inactive) | GI50 (MOLT-4): 60.4 µM (inactive) | GI50 (Malme-3M): > 100 µM (inactive) | GI50 (NCI-H226): 23.9 µM (inactive) | GI50 (NCI-H23): > 100 µM (inactive) | GI50 (NCI-H460): 63.4 µM (inactive) | GI50 (NCI-H522): > 100 µM (inactive) | GI50 (OVCAR-3): > 100 µM (inactive) | GI50 (OVCAR-4): > 100 µM (inactive) | GI50 (OVCAR-5): > 100 µM (inactive) | GI50 (OVCAR-8): > 100 µM (inactive) | GI50 (RPMI-8226): > 100 µM (inactive) | GI50 (RXF 393): > 100 µM (inactive) | GI50 (RXF 631): > 100 µM (inactive) | GI50 (SF-268): > 100 µM (inactive) | GI50 (SF-295): > 100 µM (inactive) | GI50 (SF-539): 98.9 µM (inactive) | GI50 (SK-MEL-28): > 100 µM (inactive) | GI50 (SK-MEL-2): > 100 µM (inactive) | GI50 (SK-MEL-5): > 100 µM (inactive) | GI50 (SK-OV-3): > 100 µM (inactive) | GI50 (SN12C): > 100 µM (inactive) | GI50 (SNB-19): > 100 µM (inactive) | GI50 (SNB-75): 42.9 µM (inactive) | GI50 (SNB-78): > 100 µM (inactive) | GI50 (SW-620): > 100 µM (inactive) | GI50 (TK-10): > 100 µM (inactive) | GI50 (UACC-257): > 100 µM (inactive) | GI50 (UACC-62): > 100 µM (inactive) | GI50 (UO-31): 39.8 µM (inactive) | GI50 (XF498): > 100 µM (inactive)

COc1ccccc1C(O)(c1ccccc1)C(O)(c1ccccc1)c1ccccc1OC (stereo not drawn)
GI50 (786-0): > 100 µM (inactive) | GI50 (A498): > 100 µM (inactive) | GI50 (A549): > 100 µM (inactive) | GI50 (ACHN): > 100 µM (inactive) | GI50 (CCRF-CEM): > 100 µM (inactive) | GI50 (COLO 205): > 100 µM (inactive) | GI50 (DLD-1): > 100 µM (inactive) | GI50 (DMS-114): > 100 µM (inactive) | GI50 (DMS-273): > 100 µM (inactive) | GI50 (EKVX): > 100 µM (inactive) | GI50 (HCC 2998): > 100 µM (inactive) | GI50 (HCT-116): > 100 µM (inactive) | GI50 (HCT-15): > 100 µM | GI50 (HL-60): 9.82 µM (inactive) | GI50 (HOP-18): > 100 µM (inactive) | GI50 (HOP-62): > 100 µM (inactive) | GI50 (HOP-92): 20.3 µM (inactive) | GI50 (HT-29): > 100 µM (inactive) | GI50 (IGROV-1): > 100 µM (inactive) | GI50 (K562): > 100 µM (inactive) | GI50 (KM-20L2): > 100 µM (inactive) | GI50 (KM12): > 100 µM (inactive) | GI50 (LOX IMVI): > 100 µM (inactive) | GI50 (LXFL 529): > 100 µM (inactive) | GI50 (M14): > 100 µM (inactive) | GI50 (M19-MEL): > 100 µM (inactive) | GI50 (MOLT-4): 48.1 µM (inactive) | GI50 (Malme-3M): > 100 µM (inactive) | GI50 (NCI-H226): > 100 µM (inactive) | GI50 (NCI-H23): > 100 µM (inactive) | GI50 (NCI-H460): > 100 µM (inactive) | GI50 (NCI-H522): > 100 µM (inactive) | GI50 (OVCAR-3): > 100 µM (inactive) | GI50 (OVCAR-4): > 100 µM (inactive) | GI50 (OVCAR-5): > 100 µM (inactive) | GI50 (OVCAR-8): > 100 µM (inactive) | GI50 (RPMI-8226): > 24.4 µM (inactive) | GI50 (RXF 393): > 100 µM (inactive) | GI50 (RXF 631): > 100 µM (inactive) | GI50 (SF-268): > 100 µM (inactive) | GI50 (SF-295): > 100 µM (inactive) | GI50 (SF-539): > 100 µM (inactive) | GI50 (SK-MEL-28): > 100 µM (inactive) | GI50 (SK-MEL-2): > 100 µM (inactive) | GI50 (SK-MEL-5): > 100 µM (inactive) | GI50 (SK-OV-3): > 31.6 µM (inactive) | GI50 (SN12C): > 100 µM (inactive) | GI50 (SNB-19): > 100 µM (inactive) | GI50 (SNB-75): 41.6 µM (inactive) | GI50 (SNB-78): > 100 µM (inactive) | GI50 (SR): > 100 µM (inactive) | GI50 (SW-620): > 100 µM (inactive) | GI50 (TK-10): > 100 µM (inactive) | GI50 (U-251): > 100 µM (inactive) | GI50 (UACC-257): > 100 µM (inactive) | GI50 (UACC-62): > 100 µM (inactive) | GI50 (UO-31): > 100 µM (inactive) | GI50 (XF498): > 100 µM (inactive)

From ChEMBL document CHEMBL1201862, “PubChem BioAssay data set” (2004)
